Measurements: paper PMC3793924, “Targeting Androgen Receptor/Src Complex Impairs the Aggressive Phenotype of Human Fibrosarcoma Cells” (PLoS ONE, 2013)

Legend:
[1] = test system: MMP-9; assay: Protease activity of MMP-9 released from HT1080 cells; format: cell-based, human; details: quiescent HT1080 cells; for Inhibition of EGF-stimulated MMP-9 secretion (protease activity): EGF 100 ng/ml 5 min, Casodex 10 μM, S1 and Ss peptides 10 nM added 30 min before EGF
[2] = test system: KP-2 cells; assay: Trans-well migration of KP-2 cells; format: cell-based, human; details: quiescent KP-2 cells, 6 h, EGF 100 ng/ml; for Inhibition of EGF-induced motility (transmigration): Casodex 10 μM, S1 and Ss peptides 10 nM
[3] = test system: LNCaP cells; assay: BrdU incorporation in LNCaP cells; format: cell-based, human; details: quiescent LNCaP cells, EGF 100 ng/ml, 18 h; for Inhibition of EGF-induced BrdU incorporation: Casodex 10 μM, S1 and Ss peptides 10 nM
Experimental: (§1) Quiescent human prostate cancer-derived LNCaP cells were used. In A, quiescent cells on coverslips were left unstimulated or stimulated for 18 h with the indicated compounds. […] After in vivo pulse with BrdU (100 μM), BrdU incorporation was analyzed by IF and expressed as % of total cells. Several independent experiments were performed in duplicate and the results were derived from at least 600 scored cells for each coverslip. Mean and SEM are shown. n represents the number of experiments. In B, the cells were left untreated or treated for 6 h with the indicated compounds. […] Cells were allowed to migrate in collagen pre-coated Trans-well filters. Migrated cells were stained and counted as reported in Methods. Results were derived from several independent experiments, each performed in duplicate. Data are expressed as relative increase. Mean and SEM are shown. n represents the number of experiments. Quiescent human breast cancer-derived MCF-7 cells were used. In C, quiescent cells on coverslips were left un-stimulated or stimulated for 18 h with the indicated compounds. […] After in vivo pulse with BrdU (100 μM), BrdU incorporation was analyzed by IF and expressed as % of total cells. Several independent experiments were performed in duplicate and the results were derived from at least 500 scored cells for each coverslip. Mean and SEM are shown. n represents the number of experiments. In D, the cells were left untreated or treated for 6 h with the indicated compounds. […] Cells were allowed to migrate in collagen-pre-coated Trans-well filters. Migrated cells were stained and counted as reported in Methods. Results were derived from several independent experiments, each performed in duplicate. Data are expressed as relative increase. Mean and SEM are shown. n represents the number of experiments.

[4] = molecular target: T1, Src tyrosine kinase (Homo sapiens, UniProt P12931); assay: Src kinase activity in immune complexes from HT1080 cells (enolase substrate); format: cell-based; details: quiescent HT1080 cells, EGF 100 ng/ml 10 min; S1 and Ss peptides 1 nM; Casodex 10 μM
T1 construct: lysates were immune-precipitated with the anti-Src MAb and Src activity in immune complexes was assayed using acidified enolase; endogenous in cells; host or cells: HT1080 human fibrosarcoma cells
Experimental: (§2) Quiescent HT1080 cells were used. […] Casodex (at 10 μM) was used for comparison with the S1 peptide. Upper section in A, Western blot of HT1080 cell lysates with anti-EGFR antibody. […] In B, lysates were immune-precipitated with the anti-Src MAb and Src activity in immune complexes was assayed using acidified enolase, as a substrate. In C, cells on coverslips were left untreated or treated for 18 h with the indicated compounds. After in vivo pulse with BrdU (100 μM), BrdU incorporation was analyzed by IF and expressed as % of total nuclei. Several independent experiments were performed in duplicate and the results were obtained from at least 500 scored cells for each coverslip. Mean and SEM are shown. n represents the number of experiments.
(§3) Lysates (at 2 mg/ml protein concentration) were prepared as described. […] The Src tyrosine kinase activity in immunocomplexes was assayed using enolase (Sigma) as a substrate.

[5] = test system: LNCaP cells; assay: Trans-well migration of LNCaP cells; format: cell-based, human; details: quiescent LNCaP cells, 6 h, EGF 100 ng/ml; for Inhibition of EGF-induced motility (transmigration): Casodex 10 μM, S1 and Ss peptides 1 nM
[6] = test system: HT1080 cells; assay: Trans-well migration/invasiveness of HT1080 cells; format: cell-based, human; details: quiescent HT1080 cells, collagen-coated Trans-well, 6 h, EGF 100 ng/ml; Casodex 10 μM; S1 and Ss peptides 10 nM
[7] = test system: NIH3T3 cells; assay: Trans-well migration of NIH3T3 fibroblasts; format: cell-based, mouse; details: 6 h, EGF 100 ng/ml; for Inhibition of EGF-induced motility (Trans-well): quiescent NIH3T3 fibroblasts, Casodex 10 µM, S1 and Ss peptides 10 nM
Experimental: NIH3T3 cells were used. In A, cells were transfected with 3416 or 3424 ARE-Luc constructs with or without hAR-expressing plasmid and then made quiescent as reported in Methods. Cells were left unstimulated or stimulated for 18 h with 10 nM R1881. Luciferase activity was assayed, normalized using beta-gal as an internal control, and expressed as fold induction. Three independent experiments were performed in triplicate. Means and SEM are shown; n represents the number of experiments. […] After in vivo labeling with BrdU (100 μM), BrdU incorporation was analyzed by IF and expressed as % of total cells. Several independent experiments were performed in duplicate and data derived from at least 700 scored cells for each coverslip. Mean and SEM are shown. n represents the number of experiments. […] Quiescent NIH3T3 fibroblasts were used. In C, cells on coverslips were left unstimulated or stimulated for 18 h with the indicated compounds. […] After in vivo pulse with BrdU (100 μM), BrdU incorporation was analyzed by IF and expressed as % of total cells. Several independent experiments were performed in duplicate and the results were derived from at least 500 scored cells for each coverslip. Mean and SEM are shown. n represents the number of experiments. […] The Western blot of MCF-7 cell lysate with the anti-tubulin or the anti-EGFR antibody is shown for comparison. In D, cells were left untreated or treated for 6 h with the indicated compounds. […] Cells were allowed to migrate in collagen pre-coated Trans-well filters. Migrated cells were stained and counted as reported in Methods.

[8] = test system: MCF-7 cells; assay: BrdU incorporation in MCF-7 cells; format: cell-based, human; details: quiescent MCF-7 cells, EGF 100 ng/ml, 18 h; for Inhibition of EGF-induced BrdU incorporation: Casodex 10 μM, S1 and Ss peptides 1nM
Experimental: as §1

[9] = molecular target: T2, EGFR/AR/Src complex (Homo sapiens, UniProt P12931); assay: Co-immunoprecipitation of EGFR/AR/Src complex in HT1080 cells; format: cell-based; details: quiescent HT1080 cells; for Effect on EGF-induced EGFR/AR/Src complex assembly: EGF 100 ng/ml 10 min, S1 and Ss peptides 1 nM, anti-EGFR immunoprecipitation
T2 construct: endogenous in cells; host or cells: HT1080 human fibrosarcoma cells
Experimental: as §2, §3

Molecule | Inhibition of EGF-stimulated MMP-9 secretion (protease activity) [1] | Inhibition of EGF-induced motility (transmigration) [2] | Inhibition of EGF-induced BrdU incorporation [3] | Inhibition of EGF-triggered Src activity stimulation [4] | Inhibition of EGF-induced motility (transmigration) [5] | Inhibition of EGF-induced invasiveness (trans-migration) [6] | Inhibition of EGF-induced motility (Trans-well) [7] | Inhibition of EGF-induced BrdU incorporation [8] | Effect on EGF-induced EGFR/AR/Src complex assembly [9] | Increase of protease activity of MMP-9 released ([1]; EGF 100 ng/ml, 5 min) | Motility upon stimulation [2] | BrdU incorporation upon stimulation [3] | Association of EGF-R with AR and Src upon stimulation ([9]; EGF 100 ng/ml, 10 min) | Motility in transmigration assay upon stimulation [5] | Motility upon stimulation ([7]; quiescent NIH3T3 cells) | BrdU incorporation upon stimulation [8]
CC(O)(CS(=O)(=O)c1ccc(F)cc1)C(=O)Nc1ccc(C#N)c(C(F)(F)F)c1 (centres unmarked) [Casodex] | inhibits this response | inhibit both DNA synthesis and motility | inhibits EGF-induced BrdU incorporation | This inhibition is comparable to that observed by treatment of cells with 10 μM Casodex | inhibited to a similar extent | inhibited to a similar extent | significantly inhibit both the responses | inhibits EGF-induced BrdU incorporation |  |  |  |  |  |  |  | 
Ac-HPKPARIPHP-NH2 [Ss peptide] | negligible inhibitory effect | does not interfere with the EGF-elicited responses | only slightly affects DNA synthesis | only slightly affects |  | not by Ss peptide | slightly modifies | only slightly affects DNA synthesis | only slightly affects |  |  |  |  |  |  | 
Ac-PPPHPHARIK-NH2 [S1 peptide] | inhibits the EGF effect on MMP-9 secretion | inhibit both DNA synthesis and motility | abolishes the mitogenic response elicited by EGF | completely abolishes | inhibited to a similar extent | inhibited to a similar extent | significantly inhibit both the responses | abolishes the mitogenic response elicited by EGF | abolishes AR/Src association with EGF-R |  |  |  |  |  |  | 
EGF: epidermal growth factor (Roche), used as stimulus at 100 ng/ml |  |  |  |  |  |  |  |  |  | about 2 fold | significantly increases | robustly incorporate BrdU | induces association of EGF-R with AR and Src | significantly increases the motility | significantly increases | robustly incorporate BrdU
